Assay results from patent US4983740A, “Process for 1,4-dihydropyridine compounds” (Adir et Compagnie, priority 1986, dated 1991).
Counter-ions that a name gives are not always drawn.

What was measured:
[1] = tested on: conscious dogs with renal hypertension; test: Study in conscious dogs with renal hypertension (oral, mean arterial pressure); assay type: in vivo, dog (Mongol); settings: digestive route
Description: Study in Conscious Dogs with Renal Hypertension
Mongol dogs weighing 20 to 25 kg are used. A Silastic® catheter, inserted under anesthesia at the level of the abdominal aorta, left in position permanently, enables the arterial pressure to be determined subsequently in the conscious animal.
Arterial hypertension is induced by a second operation, under anesthesia, consisting in constricting the left renal artery with a clip, decreasing the flow rate therein by approximately 70%, the left kidney is also covered with a latex capsule in order to restrict circulatory compensations; the contralateral kidney is left in position.
The systolic, diastolic and mean arterial pressures are determined with a Statham® P23 pressure sensor attached to the Silastic® catheter and connected to a Gould® "pressure-processor". The compounds are tested in animals which became hypertensive in the conscious state at least one week after the second operation. The arterial pressure is continuously recorded up to 7 hours after the treatment and then at 24 hours.
The compounds to be tested are administered by the digestive route through gastric tubing, in the form of a solution which may be aqueous, aqueous/alcoholic and the like, depending on the solubility of the products.
The doses administered are expressed in mg base per body weight kg.

[2] = tested on: conscious spontaneous hypertensive rats (SHR); test: Short-term studies in conscious spontaneous hypertensive rats (oral, systolic arterial pressure); assay type: in vivo, rat (SHR)
Experimental: Short-term Studies in Conscious Spontaneous Hypertensive Rats (SHR)
Male spontaneous hypertensive rats weighing 270 to 320 g, aged 16 to 24 weeks, are anesthetized with ether. A polyethylene catheter is introduced into the femoral artery and moved forward to the level of the tail. The pressure in the femoral artery is recorded with a Statham® P23 sensor, on a Gould® 2400 recorder. The animals are treated at least one hour after the operation. The compounds are administered orally, in the dissolved form. The doses administered are expressed in mg/kg of base. The compounds of the invention were compared with amlodipine and with another 1,4-dihydropyridine derivative reference compound, nifedipine.

rat aorta = test: In vitro activity in rat aorta stimulated by potassium ions; assay type: cell-based, rat (male Wistar); settings: 1 h; rat aorta rings, KCl 80 mM stimulation, cumulative doses at 60 minutes intervals
Experimental: Determination of the Vitro Activity in Rat Aorta Stimulated by Potassium Ions
This trial was carried out using isolated organs removed from male Wistar rats weighing 300 to 400 g, kept under a water diet 18 hours before sacrificing.
After quickly sacrificing the animal, the aorta (at the level of the arch of the aorta) is removed and dissected into 2 mm-long rings; the endothelium is removed mechanically. After an equilibration period of 1 hour in a physiological solution consisting of (mM): NaCl 112, KCl 5, KH2 PO4 1, MgSO4 1.2, CaCl2 2.5, NaHCO3 25 and glucose 11.5, the preparations are stimulated with a potassium-rich solution. The latter consists of (mM):NaCl 37, KCl 80, KH2 PO4 1, MgSO4 1.2, CaCl2 2.5, NaHCO3 25 and glucose 11.5. This solution has a pH of 7.4 at 37° C.
After 15 minutes of stabilization, the compounds to be tested are then added (sample volume 0.2 ml) at cumulative doses at 60 minutes intervals. From the relaxation values obtained, it is possible to construct a doseresponse curve, leading to the calculation of an IC50 value (expressed in M).

[3] = tested on: conscious spontaneous hypertensive rats (SHR); test: Long-term studies in conscious spontaneous hypertensive rats (oral, single daily dose, systolic arterial pressure); assay type: in vivo, rat (SHR); settings: 1 mg/kg/d; for Systolic arterial pressure Δ(mm Hg) 24 h after the last administration of the products, D1: day 1; for Systolic arterial pressure Δ(mm Hg) 24 h after the last administration of the products, D2: day 2; for Systolic arterial pressure Δ(mm Hg) 24 h after the last administration of the products, D3: day 3; for Systolic arterial pressure Δ(mm Hg) 24 h after the last administration of the products, D4: day 4; for Systolic arterial pressure Δ(mm Hg) 24 h after the last administration of the products, D7: day 7
Experimental: Long-term Studies in Conscious Spontaneous Hypertensive rats (SHR) Male rats weighing 280 to 300 g, aged 16 weeks, are used in this study. The systolic arterial pressure is determined with a Rhema multichannel 8,000® apparatus, according to the indirect method, at the tail of the animal. The compounds to be tested are administered orally, in a single daily dose. Determinations of arterial pressure are carried out each day just before the treatment. Amlodipine was also studied under the same conditions.

| SMILES | IC50 (rat aorta) [nM] | Mean arterial pressure after treatment, Δ mm Hg, 4 h ([1]; 0.5 mg/kg) [mm Hg] | Mean arterial pressure after treatment, Δ mm Hg, 7 h ([1]; 0.5 mg/kg) [mm Hg] | Mean arterial pressure after treatment, Δ mm Hg, 4 h ([1]; 1.0 mg/kg) [mm Hg] | Mean arterial pressure after treatment, Δ mm Hg, 7 h ([1]; 1.0 mg/kg) [mm Hg] | Mean arterial pressure after treatment, Δ mm Hg, 24 h ([1]; 1.0 mg/kg) [mm Hg] | Systolic arterial pressure after treatment, Δ mm Hg, 4 h ([2]; 3 mg/kg) [mm Hg] | Systolic arterial pressure after treatment, Δ mm Hg, 6 h ([2]; 3 mg/kg) [mm Hg] | Systolic arterial pressure after treatment, Δ mm Hg, 24 h ([2]; 3 mg/kg) [mm Hg] | Mean arterial pressure after treatment, Δ mm Hg, 24 h ([1]; 0.5 mg/kg) [mm Hg] | Systolic arterial pressure Δ(mm Hg) 24 h after the last administration of the products, D1 [3] [mm Hg] | Systolic arterial pressure Δ(mm Hg) 24 h after the last administration of the products, D2 [3] [mm Hg] | Systolic arterial pressure Δ(mm Hg) 24 h after the last administration of the products, D3 [3] [mm Hg] | Systolic arterial pressure Δ(mm Hg) 24 h after the last administration of the products, D4 [3] [mm Hg] | Systolic arterial pressure Δ(mm Hg) 24 h after the last administration of the products, D7 [3] [mm Hg] | Systolic arterial pressure after treatment, Δ mm Hg, 4 h ([2]; 1 mg/kg) [mm Hg] | Systolic arterial pressure after treatment, Δ mm Hg, 6 h ([2]; 1 mg/kg) [mm Hg] | Systolic arterial pressure after treatment, Δ mm Hg, 24 h ([2]; 1 mg/kg) [mm Hg] | Mean arterial pressure after treatment, Δ mm Hg, 4 h ([1]; 2.0 mg/kg) [mm Hg] | Mean arterial pressure after treatment, Δ mm Hg, 7 h ([1]; 2.0 mg/kg) [mm Hg] |
| --- | --- | --- | --- | --- | --- | --- | --- | --- | --- | --- | --- | --- | --- | --- | --- | --- | --- | --- | --- | --- |
| CCOC(=O)C1=C(COCCOCCN)NC(C)=C(C(=O)OC)C1c1ccccc1Cl (racemic) [EXAMPLE 5, (4R,S)-2-{[2-(2-Aminoethoxy)ethoxy]methyl}-4-(2-chlorophenyl)-3-ethoxycarbonyl-5-methoxycarbonyl-6-methyl-1,4-dihydropyridine fumarate] | 65 | -32 | -25 | -48 | -39 | -10 | -49 | -49 | -22 | – | – | – | – | – | – | – | – | – | – | – |
| CCOC(=O)C1=C(COCCN)NC(C)=C(C(=O)OC)C1c1ccccc1Cl (stereo not drawn) [AMLODIPINE, amlodipine, reference compound] | – | -28 | -20 | -45 | -39 | -29 | -47 | -46 | -13 | -10 | -9 | -8 | -14 | -14 | -9 | – | – | – | – | – |

Continued by falling IC50 (rat aorta), values first:

| IC50 (rat aorta) [nM] | SMILES | Mean arterial pressure after treatment, Δ mm Hg, 4 h ([1]; 0.5 mg/kg) [mm Hg] | Mean arterial pressure after treatment, Δ mm Hg, 7 h ([1]; 0.5 mg/kg) [mm Hg] | Mean arterial pressure after treatment, Δ mm Hg, 4 h ([1]; 1.0 mg/kg) [mm Hg] | Mean arterial pressure after treatment, Δ mm Hg, 7 h ([1]; 1.0 mg/kg) [mm Hg] | Mean arterial pressure after treatment, Δ mm Hg, 24 h ([1]; 1.0 mg/kg) [mm Hg] | Systolic arterial pressure after treatment, Δ mm Hg, 4 h ([2]; 3 mg/kg) [mm Hg] | Systolic arterial pressure after treatment, Δ mm Hg, 6 h ([2]; 3 mg/kg) [mm Hg] | Systolic arterial pressure after treatment, Δ mm Hg, 24 h ([2]; 3 mg/kg) [mm Hg] | Mean arterial pressure after treatment, Δ mm Hg, 24 h ([1]; 0.5 mg/kg) [mm Hg] | Systolic arterial pressure Δ(mm Hg) 24 h after the last administration of the products, D1 [3] [mm Hg] | Systolic arterial pressure Δ(mm Hg) 24 h after the last administration of the products, D2 [3] [mm Hg] | Systolic arterial pressure Δ(mm Hg) 24 h after the last administration of the products, D3 [3] [mm Hg] | Systolic arterial pressure Δ(mm Hg) 24 h after the last administration of the products, D4 [3] [mm Hg] | Systolic arterial pressure Δ(mm Hg) 24 h after the last administration of the products, D7 [3] [mm Hg] | Systolic arterial pressure after treatment, Δ mm Hg, 4 h ([2]; 1 mg/kg) [mm Hg] | Systolic arterial pressure after treatment, Δ mm Hg, 6 h ([2]; 1 mg/kg) [mm Hg] | Systolic arterial pressure after treatment, Δ mm Hg, 24 h ([2]; 1 mg/kg) [mm Hg] | Mean arterial pressure after treatment, Δ mm Hg, 4 h ([1]; 2.0 mg/kg) [mm Hg] | Mean arterial pressure after treatment, Δ mm Hg, 7 h ([1]; 2.0 mg/kg) [mm Hg] |
| --- | --- | --- | --- | --- | --- | --- | --- | --- | --- | --- | --- | --- | --- | --- | --- | --- | --- | --- | --- | --- |
| 25 | CCOC(=O)C1=C(COCCOCCN)NC(C)=C(C(=O)OC)C1c1c(F)c(F)c(F)c(F)c1F (racemic) [EXAMPLE 1, (4R,S)-2-{[2-(2-Aminoethoxy)ethoxy]methyl}-3-ethoxycarbonyl-5-methoxycarbonyl-6-methyl-4-pentafluorophenyl-1,4-dihydropyridine hemifumarate] | -21 | -22 | -45 | -47 | -46 | -79 | -78 | -71 | -15 | -52 | -51 | -49 | -44 | -46 | -44 | -54 | -47 | – | – |
| 25 | CCOC(=O)C1=C(CCCCCCCN)NC(C)=C(C(=O)OC)C1c1ccccc1Cl (racemic) [EXAMPLE 12, (4R,S)-2-(7-Aminoheptyl)-4-(2-chlorophenyl)-3-ethoxycarbonyl-5-methoxycarbonyl-6-methyl-1,4-dihydropyridine fumarate] | – | – | – | – | – | -23 | -30 | -21 | – | – | – | – | – | – | – | – | – | -22 | -32 |
| 4 | CCOC(=O)C1=C(COCCOCCN(C)Cc2ccccc2)NC(C)=C(C(=O)OC)C1c1ccccc1Cl (racemic) [EXAMPLE 7, (4R,S)-2-[{2-[2-(N-Methyl-N-benzylamino)ethoxy]ethoxy}-methyl]-4-(2-chlorophenyl)-3-ethoxycarbonyl-5-methoxycarbonyl-6-methyl-1,4-dihydropyridine tartrate] | -7 | -3 | – | – | – | -22 | -16 | -8 | 0 | – | – | – | – | – | – | – | – | – | – |
